Three compounds from PubChem BioAssay AID1259407 (Chemical Carcinogenesis Research Information System (CCRIS), 2018) can be followed below.

The subject of this series is CCRIS mutagenicity, Ames/micronucleus/aberration tests. Kind of series: CCRIS mutagenicity studies.
Where [1] appears, read: Test System: AMES SALMONELLA TYPHIMURIUM, Strain/Indicator: TA98, Metabolic Activation: NONE, Method: PREINCUBATION
Where [2] appears, read: Test System: AMES SALMONELLA TYPHIMURIUM, Strain/Indicator: TA98, Metabolic Activation: RAT LIVER S-9, PHENOBARBITAL AND BETA-NAPHTHOFLAVONE, Method: PREINCUBATION
[3] abbreviates: Test System: AMES SALMONELLA TYPHIMURIUM, Strain/Indicator: TA100, Metabolic Activation: NONE, Method: PREINCUBATION
The mark [4] stands for this setting: Test System: AMES SALMONELLA TYPHIMURIUM, Strain/Indicator: TA100, Metabolic Activation: RAT LIVER S-9, PHENOBARBITAL AND BETA-NAPHTHOFLAVONE, Method: PREINCUBATION
Setting [5] is: Test System: AMES SALMONELLA TYPHIMURIUM, Strain/Indicator: TA1535, Metabolic Activation: NONE, Method: PREINCUBATION
The mark [6] stands for this setting: Test System: AMES SALMONELLA TYPHIMURIUM, Strain/Indicator: TA1535, Metabolic Activation: RAT LIVER S-9, PHENOBARBITAL AND BETA-NAPHTHOFLAVONE, Method: PREINCUBATION
The mark [7] stands for this setting: Test System: AMES SALMONELLA TYPHIMURIUM, Strain/Indicator: TA1537, Metabolic Activation: NONE, Method: PREINCUBATION
Setting [8] is: Test System: AMES SALMONELLA TYPHIMURIUM, Strain/Indicator: TA1537, Metabolic Activation: RAT LIVER S-9, PHENOBARBITAL AND BETA-NAPHTHOFLAVONE, Method: PREINCUBATION
[9] abbreviates: Test System: E.COLI, Strain/Indicator: WP2UVRA/PKM101, Metabolic Activation: NONE, Method: PREINCUBATION
Setting [10] is: Test System: E.COLI, Strain/Indicator: WP2UVRA/PKM101, Metabolic Activation: RAT LIVER S-9, PHENOBARBITAL AND BETA-NAPHTHOFLAVONE, Method: PREINCUBATION

Activity calls are given as the source filed them. No rule for the calls is given here.

In the case of `CC(C)(C)N`, the mutagenic call runs as follows: (Test System: AMES SALMONELLA TYPHIMURIUM, Strain/Indicator: TA98, Metabolic Activation: HAMSTER, LIVER, S-9, AROCLOR 1254 (10%), Method: PREINCUBATION) “inactive; negative”; under setting [1], “inactive; negative”; under setting [2], “inactive; negative”; (Test System: AMES SALMONELLA TYPHIMURIUM, Strain/Indicator: TA98, Metabolic Activation: RAT, LIVER, S-9, AROCLOR 1254 (10%), Method: PREINCUBATION) “inactive; negative”; (Test System: AMES SALMONELLA TYPHIMURIUM, Strain/Indicator: TA100, Metabolic Activation: HAMSTER, LIVER, S-9, AROCLOR 1254 (10%), Method: PREINCUBATION) “inactive; negative”; under setting [3], “inactive; negative”. Also, the mutagenic call reads like this: under setting [4], “inactive; negative”; (Test System: AMES SALMONELLA TYPHIMURIUM, Strain/Indicator: TA100, Metabolic Activation: RAT, LIVER, S-9, AROCLOR 1254 (10%), Method: PREINCUBATION) “inactive; negative”; (Test System: AMES SALMONELLA TYPHIMURIUM, Strain/Indicator: TA1535, Metabolic Activation: HAMSTER, LIVER, S-9, AROCLOR 1254 (10%), Method: PREINCUBATION) “inactive; negative”; under setting [5], “inactive; negative”; under setting [6], “inactive; negative”; (Test System: AMES SALMONELLA TYPHIMURIUM, Strain/Indicator: TA1535, Metabolic Activation: RAT, LIVER, S-9, AROCLOR 1254 (10%), Method: PREINCUBATION) “inactive; negative”. Further, the mutagenic call runs as follows: (Test System: AMES SALMONELLA TYPHIMURIUM, Strain/Indicator: TA1537, Metabolic Activation: HAMSTER, LIVER, S-9, AROCLOR 1254 (10%), Method: PREINCUBATION) “inactive; negative”; under setting [7], “inactive; negative”; under setting [8], “inactive; negative”; (Test System: AMES SALMONELLA TYPHIMURIUM, Strain/Indicator: TA1537, Metabolic Activation: RAT, LIVER, S-9, AROCLOR 1254 (10%), Method: PREINCUBATION) “inactive; negative”; under setting [9], “inactive; negative”; under setting [10], “inactive; negative”.

Regarding `Cn1c(N=[N+]=[N-])nc2ccc3ncccc3c21`, the mutagenic call reads like this: (Test System: AMES SALMONELLA TYPHIMURIUM, Strain/Indicator: TA98(1,8-DNP6), Metabolic Activation: NONE, Method: STANDARD PLATE) “active; positive”; (Test System: AMES SALMONELLA TYPHIMURIUM, Strain/Indicator: TA98, Metabolic Activation: NONE, Method: STANDARD PLATE) “active; positive”.

With `CCCCO[C@@H](CC)CO`, the mutagenic call is “inactive; negative” under setting [1]; “inactive; negative” under setting [2]; “inactive; negative” under setting [3]; “inactive; negative” under setting [4]; “inactive; negative” under setting [5]; “inactive; negative” under setting [6]. For the same compound, the mutagenic call by setting is: under setting [7], “inactive; negative”; under setting [8], “inactive; negative”; under setting [9], “inactive; negative”; under setting [10], “inactive; negative”.
